Measurements as given in patent US9676723B2, “Factor XIa inhibitors” (Merck Sharp & Dohme Corp., priority 2014, dated 2017).
Counter-ions that a name gives are not always drawn.

Biological target: T1, human Factor XIa (Homo sapiens, UniProt P03951)
T1 construct: purified human Factor XIa; purchased Sekisui Diagnostics
Experiment: Factor XIa Assay (fluorogenic substrate Z-Gly-Pro-Arg-AFC hydrolysis)
Assay type: biochemical
Conditions: purified human Factor XIa 40 pM; substrate Z-Gly-Pro-Arg-AFC 100 μM; 50 mM HEPES pH 7.4; read-out: hu Factor XIa Ki
Procedure: The effectiveness of compounds of the present invention as inhibitors of Coagulation Factor XIa can be determined using a relevant purified serine protease, and an appropriate synthetic substrate. The rate of hydrolysis of the chromogenic or fluorogenic substrate by the relevant serine protease was measured both in the absence and presence of compounds of the present invention. Assays were conducted at room temperature or at 37° C. […] A decrease in the rate of fluorescence change in the presence of inhibitor is indicative of enzyme inhibition. Such methods are known to one skilled in the art. The results of this assay are expressed as the inhibitory constant, Ki.
Factor XIa determinations were made in 50 mM HEPES buffer at pH 7.4 containing 150 mM NaCl, 5 mM CaCl2, and 0.1% PEG 8000 (polyethylene glycol; JT Baker or Fisher Scientific). Determinations were made using purified human Factor XIa at a final concentration of 40 pM (Sekisui Diagnostics) and the synthetic substrate, Z-Gly-Pro-Arg-AFC, TFA salt (Sigma #C0980) at a concentration of 100 μM.
Activity assays were performed by diluting a stock solution of substrate at least tenfold to a final concentration ≦0.1 Km into a solution containing enzyme or enzyme equilibrated with inhibitor. Times required to achieve equilibration between enzyme and inhibitor were determined in control experiments. Initial velocities of product formation in the absence (Vo) or presence of inhibitor (Vi) were measured. Assuming competitive inhibition, and that unity is negligible compared Km/[S], [I]/e, and [I]/e (where [S], [I], and e respectively represent the total concentrations, of substrate, inhibitor and enzyme), the equilibrium constant (Ki) for dissociation of the inhibitor from the enzyme can be obtained from the dependence of Vo/Vi on [I] shown in the following equation. Vo/Vi=1+[I]/Ki

T1 sequence (P03951 388-625 limits assumed): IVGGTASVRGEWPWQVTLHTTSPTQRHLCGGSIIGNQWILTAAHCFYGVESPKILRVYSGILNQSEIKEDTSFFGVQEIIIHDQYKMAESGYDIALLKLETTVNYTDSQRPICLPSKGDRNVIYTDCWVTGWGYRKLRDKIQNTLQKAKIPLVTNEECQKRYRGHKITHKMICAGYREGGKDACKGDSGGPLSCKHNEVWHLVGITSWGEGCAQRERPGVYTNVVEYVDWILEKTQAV
T1 sequence (P03951 19-387 partner limits assumed): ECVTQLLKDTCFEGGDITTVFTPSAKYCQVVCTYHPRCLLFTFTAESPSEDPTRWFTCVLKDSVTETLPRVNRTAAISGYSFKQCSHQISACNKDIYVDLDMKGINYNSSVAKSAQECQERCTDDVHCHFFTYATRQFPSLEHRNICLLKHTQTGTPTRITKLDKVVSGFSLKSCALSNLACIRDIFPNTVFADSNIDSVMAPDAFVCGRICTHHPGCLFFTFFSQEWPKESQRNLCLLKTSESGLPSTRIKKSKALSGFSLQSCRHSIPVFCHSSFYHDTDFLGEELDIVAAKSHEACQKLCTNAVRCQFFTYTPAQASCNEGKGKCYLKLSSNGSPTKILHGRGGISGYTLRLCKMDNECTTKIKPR

| SMILES | Ki |
| --- | --- |
| NCc1ccc2c(c1)CCN([C@@H](Cc1ccccc1)C(=O)Nc1ccc(C(=O)O)cc1)C2=O [Example 1, 4-({(2S)-2-[6-(aminomethyl)-1-oxo-3,4-dihydroisoquinolin-2(1H)-yl]-3-phenylpropanoyl}amino)benzoic acid trifluoroacetate] | 44 nM |
| COC(=O)Nc1ccc(-c2cnc([C@H](Cc3ccccc3)N3CCc4cc(CN)ccc4C3=O)[nH]2)cc1 [Example 2, (S)-METHYL (4-(2-(1-(6-(AMINOMETHYL)-1-OXO-3,4-DIHYDROISOQUINOLIN-2(1H)-YL)-2-PHENYLETHYL)-1H-IMIDAZOL-5-YL)PHENYL)CARBAMATE 2,2,2-TRIFLUOROACETATE] | 116 nM |
| NCc1ccc2c(c1)CCN([C@@H](Cc1ccccc1)c1ncc(-c3ccc(C(=O)O)s3)[nH]1)C2=O [Example 5] | 546 nM |
| Cc1nc2cc(NC(=O)[C@H](Cc3ccccc3)N3CCc4cc(CN)ccc4C3=O)ccc2s1 [Example 8] | 907 nM |
| NCc1ccc2c(c1)CCN([C@@H](Cc1ccccc1)c1ncc(-c3cccc(F)c3)[nH]1)C2=O [Example 10] | 4130 nM |
| NCc1ccc2c(c1)CCN([C@@H](Cc1ccccc1)c1ncc(-c3ccc4c(N)n[nH]c4c3)[nH]1)C2=O [Example 12] | 53 nM |
| CC(C)COC(=O)Nc1ccc(-c2[nH]c([C@H](Cc3ccccc3)N3CCc4cc(CN)ccc4C3=O)nc2Cl)cc1 [Example 14] | 435 nM |
| NCc1ccc2c(c1)CCN([C@@H](Cc1ccccc1)C(=O)Nc1ccc(-c3cc[nH]n3)cc1)C2=O [Example 20] | 94.3 nM |
| Cc1nnc(-c2ccc(NC(=O)[C@H](Cc3ccccc3)N3CCc4cc(CN)ccc4C3=O)cc2)[nH]1 [Example 21] | 254 nM |
| Cc1ncc(-c2ccc(NC(=O)[C@H](Cc3ccccc3)N3CCc4cc(CN)ccc4C3=O)cc2)o1 [Example 22] | 240 nM |
| NCc1ccc2c(c1)CCN([C@@H](Cc1ccccc1)C(=O)Nc1ccc3ccncc3c1)C2=O [Example 24] | 1080 nM |
| Cn1ccc(-c2ccc(NC(=O)[C@H](Cc3ccccc3)N3CCc4cc(CN)ccc4C3=O)cc2)n1 [Example 26] | 207 nM |
| Cc1nsc2ccc(NC(=O)[C@H](Cc3ccccc3)N3CCc4cc(CN)ccc4C3=O)cc12 [Example 28] | 1470 nM |

Second part, the compound after the results:

| Ki | SMILES |
| --- | --- |
| 308 nM | NCc1ccc2c(c1)CN([C@@H](Cc1ccccc1)C(=O)Nc1ccc(C(=O)O)cc1)C2=O [Example 3] |
| 176 nM | NCc1ccc2c(c1)CCN(C(Cc1ccccc1)C(=O)Nc1ccc(C(=O)O)cc1)C2=O (centres unmarked) [Example 4] |
| 14 nM | COC(=O)Nc1ccc(-c2[nH]c([C@H](Cc3ccccc3)N3CCc4cc(CN)ccc4C3=O)nc2Cl)cc1 [Example 6] |
| 246 nM | NCc1ccc2c(c1)CCN([C@@H](Cc1ccccc1)C(=O)Nc1ccc3[nH]ncc3c1)C2=O [Example 7] |
| 1080 nM | NCc1ccc2c(c1)CCN([C@@H](Cc1ccccc1)C(=O)Nc1cccc(F)c1)C2=O [Example 9] |
| 84 nM | COC(=O)Nc1ccc(-c2[nH]c([C@H](Cc3ccccc3)N3CCc4cc(CN)ccc4C3=O)nc2C)cc1 [Example 11] |
| 151 nM | NCc1ccc2c(c1)CCN([C@@H](Cc1ccccc1)C(=O)Nc1ccc3c(N)n[nH]c3c1)C2=O [Example 13] |
| 506 nM | NCc1ccc2c(c1)CCN([C@@H](Cc1ccccc1)c1nc(Cl)c(-c3ccc(NC(=O)OC4CCCC4)cc3)[nH]1)C2=O [Example 15] |
| 68.9 nM | NCc1ccc2c(c1)CCN([C@@H](Cc1ccccc1)C(=O)Nc1ccc(-c3c[nH]cn3)cc1)C2=O [Example 19] |
| 1080 nM | Cc1ccc(-c2ccc(NC(=O)[C@H](Cc3ccccc3)N3CCc4cc(CN)ccc4C3=O)cc2)o1 [Example 23] |
| 221 nM | NCc1ccc2c(c1)CCN([C@@H](Cc1ccccc1)C(=O)Nc1ccc(-c3cnc(C4CC4)o3)cc1)C2=O [Example 25] |
| 284 nM | Cc1nc2ccc(NC(=O)[C@H](Cc3ccccc3)N3CCc4cc(CN)ccc4C3=O)cc2s1 [Example 27] |
| 198 nM | COC(=O)Nc1ccc(-c2cnc([C@H](Cc3ccccc3)N3CCc4c(ccc(CN)c4C4CC4)C3=O)[nH]2)cc1 [Example 29, (S)-methyl (4-(2-(1-(6-(aminomethyl)-5-cyclopropyl-1-oxo-3,4-dihydroisoquinolin-2(1H)-yl)-2-phenylethyl)-1H-imidazol-5-yl)phenyl)carbamate 2,2,2-trifluoroacetate] |
